Several values for one entry are separate records, joined by “and”; a condition that tells them apart may be missing. Identical values can stand only once.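 Cultured in 96-well plates, cells were exposed to test compound for 48 hours across five concentrations. Here, GI50 denotes the concentration required for 50% inhibition of growth.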 Activity calls are given as the source filed them. Cut-off read from the data, not from the text of the source: active = GI50 up to about 1.1 µM and inactive = higher.

What all share (experiment): NCI tumour cell line growth inhibition, 48 h
The test system of test [1] is ACHN.
Test [2] has as its system EKVX.
Test [3] deals with HCT-15.
The subject of test [4] is Hs-578T.
Test [5] deals with MCF7.
The test system of test [6] is MDA-N.
The subject of test [7] is MOLT-4.
Test [8] relates to Malme-3M.
Test [9] relates to NCI-H23.
Test [10] concerns PC-3.
For test [11], the system named is RPMI-8226.
Test [12] concerns SF-268.
For test [13], the system named is SF-539.
Test [14] has as its system SK-MEL-2.
In test [15] the test system is SW-620.
For test [16], the system named is T47D.
Test [17] concerns U-251.
The test system of test [18] is UACC-257.
For test [19], the system named is UO-31.
Test [20] deals with UACC-62.

On to `Cc1c(NC(=O)CSC(=S)N(C)C)c(=O)n(-c2ccccc2)n1C`, for which the GI50 in test [1] is > 100 µM (inactive); in test [2], > 100 µM (inactive); in test [3], greater than 100 µM; in test [4] it was > 100 µM (inactive); in [5], > 100 µM (inactive); in test [6], > 100 µM (inactive). Further, the GI50 in test [7], in test [8], in test [9], in test [10], in test [11] and in test [12] was > 100 µM (inactive) each time. Moreover, the GI50 in test [13], in [14], in test [15], in test [16], in test [17] and in test [18] was > 100 µM (inactive) in each case. In addition, the GI50 in [19] was > 100 µM (inactive).

Consider `CC(=O)N(C(C)=O)c1ncc(-n2nc(-c3ccccc3)cc2-c2ccccc2)c(-c2ccccc2)n1`, for which the GI50 in [1] is > 10 µM (inactive); in [2], > 10 µM (inactive); in test [3] it was 8.91 µM; in test [4], > 10 µM (inactive); in [5], 5.07 µM (inactive); in test [6], 3.15 µM (inactive). The GI50 in test [7] is 5.22 µM (inactive); in test [8], > 10 µM (inactive); in test [9] it was > 10 µM (inactive); in [10] it was > 10 µM (inactive); in test [11], > 10 µM (inactive); in test [12], > 10 µM (inactive). The GI50 in [13], in test [14], in [15], in test [16], in [17] and in test [18] was > 10 µM (inactive) each time. For the same compound, the GI50 in test [20] is > 10 µM (inactive).

As for `Nc1nc2cc(CNc3ccc(C(=O)O)cc3)ccc2nc1-c1ccccc1`, the GI50 is > 100 µM (inactive) in test [1]; greater than 100 µM in test [3]; > 100 µM (inactive) in test [4]; > 100 µM (inactive) in [5]; > 100 µM (inactive) in test [6]; 69.8 µM (inactive) in [7]. Besides, the GI50 in [8] was > 100 µM (inactive); in [9], 88.7 µM (inactive); in test [10], > 100 µM (inactive); in test [11], > 100 µM (inactive); in [12] it was > 100 µM (inactive); in test [13], 74.5 µM (inactive). The GI50 in [14] is > 100 µM (inactive); in test [15] it was > 100 µM (inactive); in test [16], 35.1 µM (inactive); in [17], > 100 µM (inactive); in test [18], > 100 µM (inactive); in test [20], > 10 µM (inactive). Besides, the GI50 in test [19] is 86.5 µM (inactive).

As for `Oc1ccc(Cn2c(-c3ccc(O)c(O)c3)nc3ccccc32)cc1O`, the GI50 in test [1] is 10.9 µM (inactive); in [2], 27.9 µM (inactive); in [3] it was 7.48 µM; in [4], 5.79 µM (inactive); in test [5], 30.1 µM (inactive); in test [6] it was 15 µM (inactive). Besides, the GI50 in test [7] is 2.52 µM (inactive); in test [8], 9.12 µM (inactive); in [9], 23.3 µM (inactive); in test [10], 22.1 µM (inactive); in test [11] it was 13.3 µM (inactive); in [12] it was 11.5 µM (inactive). Moreover, the GI50 in test [13] is 7.45 µM (inactive); in [14] it was 18.4 µM (inactive); in [15], 13.4 µM (inactive); in test [16], 10.6 µM (inactive); in test [17] it was 5.09 µM (inactive); in [18], 33 µM (inactive). In addition, in test [19], the GI50 was 10.8 µM (inactive).

Turning to `Cc1ccc(C2=Nc3c(N)nc(N)nc3NC(c3ccccc3)C2)cc1` (stereo unspecified), the GI50 in test [1] was 15.1 µM (inactive); in [2], 13.5 µM (inactive); in test [3], 4.92 µM; in test [4], 13 µM (inactive); in test [5], 7.69 µM (inactive); in test [6], 2.22 µM (inactive). Further, the GI50 in test [7] was 5.14 µM (inactive); in test [8] it was 10.9 µM (inactive); in test [9], 11.3 µM (inactive); in [10] it was 10.5 µM (inactive); in test [11], 7.01 µM (inactive); in test [12], 14.9 µM (inactive). In addition, the GI50 is 12.1 µM (inactive) in test [13]; 4.16 µM (inactive) in test [15]; 12.6 µM (inactive) in [16]; 12.1 µM (inactive) in test [17]; 12.2 µM (inactive) in test [18]; 10.3 µM (inactive) in test [20]. In addition, in test [19], the GI50 was 12.6 µM (inactive).

Take `Cc1csc2nc(-c3ccc([N+](=O)[O-])cc3)c(/C=N/N=C(N)N)n12`: the GI50 in test [1] was 1.28 µM (inactive); in test [2], 1.39 µM (inactive); in test [3] it was 0.791 µM; in test [4], 2.09 µM (inactive); in test [5] it was 1.61 µM (inactive); in test [6] it was 1.8 µM (inactive). In addition, the GI50 was 1.53 µM (inactive) in test [8]; 1.64 µM (inactive) in [9]; 1.69 µM (inactive) in test [10]; 2.05 µM (inactive) in test [11]; 1.68 µM (inactive) in test [12]; 1.85 µM (inactive) in test [13]. Further, the GI50 was 1.43 µM (inactive) in test [14]; 1.94 µM (inactive) in test [15]; 2.79 µM (inactive) in [16]; 1.8 µM (inactive) in test [17]; 1.91 µM (inactive) in test [18]; 1.71 µM (inactive) in test [20]. The GI50 in test [19] was 1.49 µM (inactive).

As for `COc1nc2ncc([C@@H](OC(C)=O)[C@@H](COC(C)=O)OC(C)=O)nc2c(=O)[nH]1`, the GI50 in test [1] was > 100 µM (inactive); in test [2] it was > 100 µM (inactive); in test [3], greater than 100 µM; in [4] it was > 100 µM (inactive); in test [5], > 100 µM (inactive); in [6] it was > 100 µM (inactive). Also, the GI50 in [8] is > 100 µM (inactive); in test [10], > 100 µM (inactive); in test [11] it was > 100 µM (inactive); in test [12] it was > 100 µM (inactive) and 83.4 µM (inactive); in test [13], > 100 µM (inactive); in [14], > 100 µM (inactive). The GI50 in test [15], in test [16], in [17], in test [18], in test [20] and in test [19] was > 100 µM (inactive) each time.

As to `Cc1nc(C)c(N2CCN(C#N)CC2)c(O)n1`, the GI50 in [1] was > 100 µM (inactive); in [2] it was > 100 µM (inactive); in test [3], greater than 100 µM; in test [4], > 100 µM (inactive); in test [5] it was > 100 µM (inactive); in [6] it was > 100 µM (inactive). Besides, the GI50 in [7], in test [8], in test [9], in test [10], in test [11] and in [12] was > 100 µM (inactive) in each case. The GI50 in [13] was > 100 µM (inactive); in [15] it was > 100 µM (inactive); in test [16], > 100 µM (inactive); in test [17], 77.8 µM (inactive); in [18] it was > 100 µM (inactive); in [20] it was > 100 µM (inactive). For the same compound, in [19], the GI50 was > 100 µM (inactive).
